Measurements published in patent US12084422B2, “Phenyl-n-quinoline derivatives for treating a RNA virus infection” (ABIVAX, priority 2018, dated 2024).

Key:
[1] = system: Chikungunya Virus (CHIKV) strain LR2006-OPY1 with GFP modification (CHIK 5'LR); assay: Inhibition of Chikungunya virus (CHIKV) production in infected HEK293T cell line (GFP fluorescence); assay type: cell-based; conditions: HEK-293T, infected HEK293T cells; for inhibition at 1 µM: compounds at 1 μM, MOI 0.1, 22 h, values above 100 lowered to 100, read-out: % CHIKV Inhibition Mean (n = 2); for IC50: second round of experiments
Method: The ability of the compounds to inhibit viral replication was assessed with an experiment in which infected cells were treated by compounds of formula (I) at 1 μM. As a positive control for inhibition of Chikungunya, Ribavirin was used. Toxicity of the compounds was assessed in parallel.
Human embryonic kidney cells 293T (HEK293T, CRL-11268) were maintained in Dulbecco's modified Eagle's Medium (DMEM, 31966-021, Thermo Fisher Scientific) supplemented with 10% of fetal bovine serum (FBS), penicillin and streptomycin. After removal of the medium, cells were washed with a Ca^2+- and Mg^2+-free salt solution to remove all traces of serum. After aspiration of wash solution, cells were dissociated with 0.25% Trypsin-EDTA solution and incubated 30 s at least in 37° ° C. incubator. Concentration of cell suspension was determined by an automatic cell counter (EVE, NanoEntek) and, if needed, adjusted to 0.33×10^6 cells/mL with DMEM medium supplemented with 10% FBS.
100 μL of the cell suspension were dispatched in a ViewPlate-96 Black (6005182, PerkinElmer) and in a transparent 96-well cell culture plate (655180, Greiner bio-one). After an incubation for 24 h at 37° C. under 5% of CO2, compounds were added at the proper concentration.
An intermediate dilution was prepared with DMSO (D8418, Sigma) at 2 mM in a 96-well V-bottom microplate from the stock solution:
Mix 1 μL of the 50 mM stock library in 25 μL of DMSO.
Mix 2 μL of the 25 mM stock library in 25 μL of DMSO.
An intermediate dilution was prepared with DMSO (D8418, Sigma) at 25 mM in a 96-well V-bottom microplate from the stock solution:
Mix 2 μL of the 50 mM stock library in 2 μL of DMSO.
Serial dilutions were performed in 2 μL of DMSO 13 times to reach 0.0015 mM as follows in table III:
For both screen and determination of IC50 1 μL of each solution was added in a 1 mL Masterblock 96 wells (Greiner bio-one, 780261) containing 1 mL of DMEM medium. As a positive control, 5 μL of a 80 mM Ribavirin solution (R9644, Sigma) is added to 1 mL of DMEM. On the other hand, DMSO is used as a negative control.
[…]. Vector Borne Zoonotic Dis. 2006; 6(4)). This modified virus was used to infect cells at MOI 0.1. […].
Medium was removed after 22 h at 37° ° C. under 5% of CO2 and cells were washed as described above. 60 μL of RIPA buffer (50 mM Tris-HCl pH8, 100 mM NaCl, 1 mM MgCl2, 1% Triton X-100) was added to cells and incubated for at least 20 min before reading fluorescence signal. Pierce 660 nm Protein Assay Reagent (22660, Thermo scientific) was used to normalize fluorescence signal by protein quantity.
A first round of experiments has been performed wherein the results are expressed as inhibition percentage, which is calculated as follows, through the following steps:
1. Fluorescence intensity (FI) 509 nm/Absorbance 660 nm (A660)=A
This ratio allows considering the infection (GFP virus) to the protein amount.
2. A′=A—background noise of non-infected plate,
3. B=Fluorescence intensity (FI)/Absorbance 660 nm (A660) of infected but non treated plates,
4. C=A′/B which is then converted as the percentage of infection after treatment, compared to non-treated sample, and subsequently as the […]. For instance, a value of 100 in Table IV here below means that, after treatment, the signal attributed to GFP fluorescence is abolished, which is correlated to the absence of infection.
This value corresponds to the inhibition's percentage.
The following Table IV encompasses said C′ value for some compounds as calculated above with a mean of 2 experiments, and the corresponding standard deviation.
Some values were originally above 100. In these cases, the value has been lowered to 100. This means that some molecules also have an impact on the viability of the cells. In other words, the A value may be lower than the background noise.
Moreover, for each measure, the test was performed with Ribavirin as control. The value of the inhibition percentage was checked, giving 100%.

DENV-2 strain 16681 = assay: Screening for DENV-2 inhibition using Viral ToxGlo assay in A549 cells; assay type: cell-based, Dengue 2 virus; conditions: Dengue virus, DENV2, A549, 120 h, read-out: % DENV-2 Inhibition Mean (n = 3)
Method: Protocol for Screening Antiviral Compounds for DENV-2 Inhibition and Cytotoxicity Using Viral ToxGlo Assay
A549 cells were maintained in Dulbecco's Modified Eagle Medium (DMEM) supplemented with 10% fetal bovine serum, 100 U/ml penicillin and 100 μg/ml streptomycin. For the purposes of the screening assay they were grown to 90% confluency, trypsinized and recovered. The trypsin was neutralised with cell culture media and cells were centrifuged at 150×g for 5 minutes before discarding the supernatant and resuspending cell pellet in assay media (DMEM supplemented with 2% fetal bovine serum and 100 U/ml penicillin and 100 μg/ml streptomycin). The cells were seeded into 96-well white clear-bottomed cell culture plates at a density of 1.0×10^4 cells/well in 50 μl. For the media/background control column assay media only was added. Cell plates were placed in a humid chamber and incubated overnight at 37° C./5% CO2. After overnight incubation cells were checked for confluency and healthy appearance.
Test compounds were prepared at a final concentration of 10 μM, in a maximum DMSO concentration of 1% (final assay concentration maximal 0.1% DMSO) and added to the cell plates in volumes of 10 μl. For cell control and virus control wells the test article solvent only was added. As a positive inhibition control, 7-Deaza-2′-C-methyladenosine was added at 100 μM in 3 wells. Virus (DENV-2 strain 16681) or assay media for cytotoxicity test wells and media/cell control wells was added immediately after test articles at an MOI of 0.5, 40 for 96 well plates respectively. Virus suspension was prepared by thawing DENV-2 frozen stocks and diluting to the required concentration of plaque forming units in assay media.
Cell plates were further incubated inside a humid chamber for 5 days p.i at 37° C./5% CO2. After the incubation period cells were observed under the microscope to check for characteristic cytopathic effect in virus control wells and healthy cells in the cell control wells. After plates were adjusted to room temperature 20 μl Viral ToxGlo (Promega) was added to each well of the 96-well cell plates. Plates were incubated at room temperature for 5 minutes before measuring the luminescence on a spectrophotometer (Envision, PerkinElmer).
DENV-2 inhibition was calculated as percentage of cytopathic effect inhibition relative to the virus control and cytotoxicity as percentage of cell survival relative to cell control wells.

| Structure (SMILES) | inhibition at 1 µM [1] [%] | IC50 [1] [nM] | inhibition at 10 µM (DENV-2 strain 16681) [%] |
| --- | --- | --- | --- |
| CCc1cc(OC(F)(F)F)ccc1Nc1ccc2cccc(Cl)c2n1 [Compound 2, 8-chloro-N-(2-ethyl-4-(trifluoromethoxy)phenyl)quinolin-2-amine] | 100 | 1 to 200 | – |
| CC(C)Cc1cc(OC(F)(F)F)ccc1Nc1ccc2cccc(Cl)c2n1 [Compound 3, 8-chloro-N-(2-isobutyl-4-(trifluoromethoxy)phenyl)quinolin-2-amine] | 100 | – | – |
| FC(F)(F)Oc1ccc(Nc2ccc3cccc(Cl)c3n2)c(C2CC2)c1 [Compound 4, 8-chloro-N-(2-cyclopropyl-4-(trifluoromethoxy)phenyl)quinolin-2-amine] | 100 | 1 to 200 | – |
| CCc1cc(OC(F)(F)F)cc(C)c1Nc1ccc2cccc(Cl)c2n1 [Compound 5, 8-chloro-N-(2-ethyl-6-methyl-4-(trifluoromethoxy)phenyl)quinolin-2-amine] | – | – | 156 |
| CCc1cc(OC(F)(F)F)ccc1Nc1ccc2ccccc2n1 [Compound 7, N-(2-ethyl-4-(trifluoromethoxy)phenyl)quinolin-2-amine] | 99 | – | – |
| FC(F)(F)Oc1ccc(Nc2ccc3ccccc3n2)c(C2CC2)c1 [Compound 8, N-(2-cyclopropyl-4-(trifluoromethoxy)phenyl)quinolin-2-amine] | 100 | – | – |
| CCOc1ccc(Nc2ccc3cccc(Cl)c3n2)c(C)c1 [Compound 12, 8-chloro-N-(4-ethoxy-2-methylphenyl)quinolin-2-amine] | 95 | – | 129 |
| Cc1cc(OCCOC(F)(F)F)ccc1Nc1ccc2cccc(Cl)c2n1 [Compound 14, 8-chloro-N-(2-methyl-4-(2-(trifluoromethoxy)ethoxy)phenyl)quinolin-2-amine] | 91 | – | – |
| Cc1cc(OC2CCCC2)ccc1Nc1ccc2cccc(Cl)c2n1 [Compound 16, 8-chloro-N-(4-(cyclopentyloxy)-2-methylphenyl)quinolin-2-amine] | 98 | 1 to 200 | 77 |
| Cc1cc(OC2CCCCC2)ccc1Nc1ccc2cccc(Cl)c2n1 [Compound 17, 8-chloro-N-(4-(cyclohexyloxy)-2-methylphenyl)quinolin-2-amine] | 100 | 1 to 200 | – |
| CC(C)Oc1ccc(Nc2ccc3cccc(Cl)c3n2)c(C2CC2)c1 [Compound 20, 8-chloro-N-(2-cyclopropyl-4-isopropoxyphenyl)quinolin-2-amine] | 99 | 1 to 200 | 94 |
| Cc1c(Nc2ccc3cccc(Cl)c3n2)ccc(OC(C)C)c1C [Compound 21, 8-chloro-N-(4-isopropoxy-2,3-dimethylphenyl)quinolin-2-amine] | 100 | 1 to 200 | – |
| Cc1cc(OC2CCC2)ccc1Nc1ccc2cccc(Cl)c2n1 [Compound 22, 8-chloro-N-(4-cyclobutoxy-2-methylphenyl)quinolin-2-amine] | 100 | 1 to 200 | 82 |
| Cc1cc(OCc2ccccn2)ccc1Nc1ccc2cccc(Cl)c2n1 [Compound 23, 8-chloro-N-(2-methyl-4-(pyridin-2-ylmethoxy)phenyl)quinolin-2-amine] | 82 | – | – |
| Fc1ccccc1Oc1ccc(Nc2ccc3ccccc3n2)cc1 [Compound 29, N-(4-(2-fluorophenoxy)phenyl)quinolin-2-amine] | 97 | – | – |
| Cc1ccc(Oc2ccc(Nc3ccc4cccc(Cl)c4n3)cc2)cc1 [Compound 31, 8-chloro-N-(4-(p-tolyloxy)phenyl)quinolin-2-amine] | 93 | – | – |
| Fc1ccccc1Oc1ccc(Nc2ccc3cccc(Cl)c3n2)cc1 [Compound 32, 8-chloro-N-(4-(2-fluorophenoxy)phenyl)quinolin-2-amine] | 90 | – | – |
| CCc1cc(Oc2ccccc2F)ccc1Nc1ccc2ccccc2n1 [Compound 39, N-(2-ethyl-4-(2-fluorophenoxy)phenyl)quinolin-2-amine] | 99 | 1 to 200 | 104 |
| Cc1cc(OC(C)C)c(C(C)C)cc1Nc1ccc2cccc(Cl)c2n1 [Compound 40, 8-chloro-N-(4-isopropoxy-5-isopropyl-2-methylphenyl)quinolin-2-amine] | – | 1 to 200 | 97 |
| CCc1cc(OC2CCC2)ccc1Nc1ccc2cccc(Cl)c2n1 [Compound 41, 8-chloro-N-(4-cyclobutoxy-2-ethylphenyl)quinolin-2-amine] | – | 1 to 200 | – |
| Clc1cccc2ccc(Nc3ccc(OC4CCC4)cc3C3CC3)nc12 [Compound 42, 8-chloro-N-(4-cyclobutoxy-2-cyclopropylphenyl)quinolin-2-amine] | – | 1 to 200 | 84 |
| COc1ccc(Oc2ccc(Nc3ccc4ccccc4n3)c(C)c2)c(F)c1 [Compound 45, N-(4-(2-fluoro-4-methoxyphenoxy)-2-methylphenyl)quinolin-2-amine] | – | 1 to 200 | – |
| Cc1cc(Oc2ccccc2F)c(C)cc1Nc1ccc2cccc(Cl)c2n1 [Compound 63, 8-chloro-N-(4-(2-fluorophenoxy)-2,5-dimethylphenyl)quinolin-2-amine 2,2,2-trifluoroacetate] | – | – | 74 |
| CCc1cc(Oc2ccc(OC)cc2F)ccc1Nc1ccc2ccccc2n1 [Compound 76, N-(2-ethyl-4-(2-fluoro-4-methoxyphenoxy)phenyl)quinolin-2-amine] | – | – | 78 |
| COc1ccc(Oc2ccc(Nc3ccc4ccccc4n3)cc2)c(F)c1 [Compound 77, N-(4-(2-fluoro-4-methoxyphenoxy)phenyl)quinolin-2-amine] | – | – | 87 |
